Columns and labels:
acne = assay: case study of topical beta-sitosterol treatment of acne; type: in vivo; conditions: for reduction in acne: end of study, after four weeks of application; for mean reduction in acne: first week
Excerpt: This vehicle containing the beta-sitosterol is applied to the sites of the subcutaneous gland disorders on a twice daily basis (morning and evening).
FIG. 4 is a table indicating the results found in a case study.
The study used a cross section of the population having a distribution of sexes, ages, and areas being affected.
At the end of the study, after four weeks of application, the women found a fifty percent reduction with the men showing a forty-five percent reduction.

[1] = alcohols; cited from earlier work

With `CCC(CCC(C)C1CCC2C3CC=C4CC(O)CCC4(C)C3CCC12C)C(C)C` (stereo not drawn) [beta-sitosterol, 17-(5-Ethyl-6-methylheptan-2-yl)-10-13-dimethyl-2,3,4,7,8,9,11,12,14,16,17-deodeccahydrom-1H-cyclopental(alpha)phenanthren-3-ol] the “change of acne in the affected areas” value (acne; all cases, start of use) was “immediate reduction in the acne”, the “change of acne with continuous use” value (acne; all of the subjects, continuous use) was “further reductions in acne” and the reduction in acne (acne; men) was “forty-five”. The “mean reduction in acne” value (acne; men) was 10%, the reduction in acne (acne; women) was “fifty” and the “mean reduction in acne” value (acne; women) was 10%. The solubility [1] was “hydrophobic and soluble in alcohols”.
